Measured values: ChEMBL document CHEMBL6120968, “Discovery of Thiadiazoleamide Derivatives as Potent, Selective, and Orally Available Antagonists Disrupting Androgen Receptor Homodimer” (J Med Chem, 2024)
pIC50: −log10 of the molar value.

Legend:
[1] = Cmax in rat at 20 mg/kg, po by LC-MS/MS analysis; type: ADME, organism-based; settings: in vivo
[2] = MRTlast in rat at 20 mg/kg, iv by LC-MS/MS analysis; type: ADME, organism-based; settings: in vivo
[3] = AUC (0 to infinity) in rat at 20 mg/kg, iv by LC-MS/MS analysis; type: ADME, organism-based; settings: in vivo
[4] = target: T1, Androgen receptor (Homo sapiens, UniProt P10275); assay: Antagonist activity at Androgen receptor in human LNCaP cells transfected with ARR2PB-eGFP incubated for 3 days by synergy H1 microplate reader analysis; type: cell-based
T1 sequence (P10275 whole entry): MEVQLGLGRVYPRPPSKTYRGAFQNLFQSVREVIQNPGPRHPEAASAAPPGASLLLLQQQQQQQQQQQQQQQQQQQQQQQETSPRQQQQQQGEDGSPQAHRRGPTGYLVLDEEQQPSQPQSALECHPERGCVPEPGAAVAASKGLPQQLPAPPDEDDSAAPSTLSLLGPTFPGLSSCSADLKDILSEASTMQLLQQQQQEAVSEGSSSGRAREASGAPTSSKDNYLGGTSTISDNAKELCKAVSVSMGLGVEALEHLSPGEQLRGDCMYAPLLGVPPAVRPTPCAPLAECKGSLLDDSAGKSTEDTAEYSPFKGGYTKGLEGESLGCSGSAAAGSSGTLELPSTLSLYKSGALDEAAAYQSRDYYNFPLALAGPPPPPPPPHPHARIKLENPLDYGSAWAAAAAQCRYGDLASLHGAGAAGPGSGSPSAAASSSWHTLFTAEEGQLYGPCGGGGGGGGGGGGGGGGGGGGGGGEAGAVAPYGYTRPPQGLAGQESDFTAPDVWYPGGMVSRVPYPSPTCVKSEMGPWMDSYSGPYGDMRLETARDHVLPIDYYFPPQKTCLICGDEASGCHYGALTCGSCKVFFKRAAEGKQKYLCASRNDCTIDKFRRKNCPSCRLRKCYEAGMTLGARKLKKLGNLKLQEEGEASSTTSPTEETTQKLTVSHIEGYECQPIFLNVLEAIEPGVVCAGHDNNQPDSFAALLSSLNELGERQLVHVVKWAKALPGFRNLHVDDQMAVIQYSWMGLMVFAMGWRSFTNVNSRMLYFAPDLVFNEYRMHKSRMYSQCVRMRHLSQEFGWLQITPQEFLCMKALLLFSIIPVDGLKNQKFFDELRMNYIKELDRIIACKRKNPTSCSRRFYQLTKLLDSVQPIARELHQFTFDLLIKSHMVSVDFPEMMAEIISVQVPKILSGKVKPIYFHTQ

[5] = Microsomal stability in monkey liver microsome assessed as half life measured upto 60 mins in presence of NADPH and UDPGA by HPLC-MS/MS analysis; type: ADME, Macaca mulatta; settings: rhesus monkey, liver microsomes
[6] = Microsomal stability in Beagle dog liver microsome assessed as half life measured upto 60 mins in presence of NADPH and UDPGA by HPLC-MS/MS analysis; type: ADME, Canis lupus familiaris; settings: liver microsomes
[7] = Half life in rat at 20 mg/kg, po by LC-MS/MS analysis; type: ADME, organism-based; settings: in vivo
[8] = Microsomal stability in human liver microsome assessed as intrinsic clearance measured upto 60 mins in presence of NADPH and UDPGA by HPLC-MS/MS analysis; type: ADME; settings: liver microsomes, read-out: CLH
[9] = Microsomal stability in human liver microsome assessed as parent compound remaining at 60 mins in presence of NADPH and UDPGA by HPLC-MS/MS analysis; type: ADME; settings: liver microsomes, read-out: Stability
[10] = Microsomal stability in monkey liver microsome assessed as intrinsic clearance measured upto 60 mins in presence of NADPH and UDPGA by HPLC-MS/MS analysis; type: ADME, Macaca mulatta; settings: rhesus monkey, liver microsomes, read-out: CLH
[11] = Half life in rat at 20 mg/kg, iv by LC-MS/MS analysis; type: ADME, organism-based; settings: in vivo
[12] = Microsomal stability in rat liver microsome assessed as parent compound remaining at 60 mins in presence of NADPH and UDPGA by HPLC-MS/MS analysis; type: ADME; settings: liver microsomes, read-out: Stability
[13] = Observed apparent oral clearance in rat at 20 mg/kg, iv by LC-MS/MS analysis; type: ADME, organism-based; settings: in vivo
[14] = Observed apparent oral clearance in rat at 20 mg/kg, po by LC-MS/MS analysis; type: ADME, organism-based; settings: in vivo
[15] = Tmax in rat at 20 mg/kg, po by LC-MS/MS analysis; type: ADME, organism-based; settings: in vivo
[16] = Observed apparent volume of distribution during terminal phase in rat at 20 mg/kg, po by LC-MS/MS analysis; type: ADME, organism-based; settings: in vivo, read-out: Vz/F_obs
[17] = Microsomal stability in mouse liver microsome assessed as half life measured upto 60 mins in presence of NADPH and UDPGA by HPLC-MS/MS analysis; type: ADME; settings: liver microsomes
[18] = Acute toxicity in po dosed male CB17.SCID mouse implanted with human LNCaP cells assessed as body weight loss measured within 14 days; type: organism-based; settings: in vivo, time 14 day
[19] = Toxicity in male CB17.SCID mouse implanted with human LNCaP cells assessed as body weight loss at 40 mg/kg, po measured upto 30 days; type: organism-based; settings: in vivo, 720 h, time < 30 day
[20] = Acute toxicity in male CB17.SCID mouse implanted with human LNCaP cells assessed as body weight loss at 1250 mg/kg, po measured within 14 days; type: organism-based; settings: in vivo, 336 h, time 14 day
[21] = Acute toxicity in male CB17.SCID mouse implanted with human LNCaP cells assessed as abnormal behavior at 1250 mg/kg, po measured within 14 days; type: organism-based; settings: in vivo, 336 h, time 14 day
[22] = Microsomal stability in mouse liver microsome assessed as parent compound remaining at 60 mins in presence of NADPH and UDPGA by HPLC-MS/MS analysis; type: ADME; settings: liver microsomes, read-out: Stability
[23] = test system: NIH3T3; assay: Antiproliferative activity against mouse 3T3 cells assessed as reduction in cell viability incubated for 3 days by MTT assay; type: toxicity, cell-based; settings: nih3t3, 72 h, time 3 day

Compound `Cc1oc(-c2cccc(C(F)(F)F)c2)cc1C(=O)Nc1nc(CN2CCOCC2)ns1` has a Cmax [1] of 1880 ng/mL, an MRT last [2] of 6 h and an AUC(0-inf) [3] of 35800 ng·h/mL. For the same compound, the pIC50 [4] was 7.74, the half-life [5] was 1.58 h and the half-life [6] was 0.367 h. It also gave a half-life [7] of 6.86 h, a microsomal CLint [8] of 18.7 µL/min/mg and a remaining at 1 h [9] of 29.7%. It also gave a microsomal CLint [10] of 7.3 µL/min/mg, a half-life [11] of 7.84 h and a remaining at 1 h [12] of 22.5%. It also gave a CL/F [13] of 10.2 mL/min/kg, a CL/F [14] of 17.3 mL/min/kg and a Tmax [15] of 3.33 h. The Vd/F [16] was 11.1 L/kg, the half-life [17] was 0.642 h and the LD50 at 336 h [18] was 1250 mg/kg. For the same compound, the Activity [19] was “Non-toxic”, the Activity [20] was “Non-toxic” and the Activity [21] was “Non-toxic”. For the same compound, the remaining at 1 h [22] was 32.3% and the Activity [23] was “Non-toxic”.
